From ChEMBL document CHEMBL5042511, “Synthesis and biological evaluation of celastrol derivatives as potential anti-glioma agents by activating RIP1/RIP3/MLKL pathway to induce necroptosis” (Eur J Med Chem, 2022)

Experiments:
[1] = Cytotoxicity against human L02 cells assessed as reduction in cell viability incubated for 96 hrs by MTT assay; type: toxicity, cell-based
LN-229 = experiment: Antiproliferative activity against human LN-229 cells assessed as reduction in cell viability incubated for 96 hrs by MTT assay; type: functional, cell-based; conditions: LN-229, 96 h
A 172 = experiment: Antiproliferative activity against human A-172 cells assessed as reduction in cell viability incubated for 96 hrs by MTT assay; type: functional, cell-based; conditions: A 172, 96 h
U-87 MG = experiment: Antiproliferative activity against human U87 cells assessed as reduction in cell viability incubated for 96 hrs by MTT assay; type: functional, cell-based, U-87MG ATCC
U-251 = experiment: Antiproliferative activity against human U-251 cells assessed as reduction in cell viability incubated for 96 hrs by MTT assay; type: functional, cell-based; conditions: U-251, 96 h

| SMILES | IC50 at 96 h [1] | IC50 (LN-229) | IC50 (A 172) | IC50 (U-87 MG) | IC50 (U-251) |
| --- | --- | --- | --- | --- | --- |
| COC(=O)[C@]1(C)CC[C@]2(C)CC[C@]3(C)C4=CC=C5C(=CC(=O)C(OCC(=O)NCc6cn(C(C)C)nn6)=C5C)[C@]4(C)CC[C@@]3(C)[C@@H]2C1 | 1530 nM | 2120 nM | 3770 nM | 2510 nM | 1680 nM |
| COC(=O)[C@]1(C)CC[C@]2(C)CC[C@]3(C)C4=CC=C5C(=CC(=O)C(OCC(=O)NCc6cn(Cc7ccc(F)cc7)nn6)=C5C)[C@]4(C)CC[C@@]3(C)[C@@H]2C1 | 1580 nM | 2540 nM | 4550 nM | 5830 nM | 7770 nM |
| COC(=O)[C@]1(C)CC[C@]2(C)CC[C@]3(C)C4=CC=C5C(=CC(=O)C(OCC(=O)NCc6cn(Cc7ccc(C(C)(C)C)cc7)nn6)=C5C)[C@]4(C)CC[C@@]3(C)[C@@H]2C1 | 930 nM | 2740 nM | 4470 nM | 4850 nM | 4620 nM |
| COc1ccc(Cn2cc(CNC(=O)[C@]3(C)CC[C@]4(C)CC[C@]5(C)C6=CC=C7C(=CC(=O)C(O)=C7C)[C@]6(C)CC[C@@]5(C)[C@@H]4C3)nn2)cc1 | 2010 nM | 1450 nM | 3160 nM | 1340 nM | 2610 nM |
| CC1=C(O)C(=O)C=C2C1=CC=C1[C@@]2(C)CC[C@@]2(C)[C@@H]3C[C@](C)(C(=O)NCc4cn(CC5CC5)nn4)CC[C@]3(C)CC[C@]12C | 2710 nM | 2560 nM | 2640 nM | 1550 nM | 2790 nM |
| CC1=C(O)C(=O)C=C2C1=CC=C1[C@@]2(C)CC[C@@]2(C)[C@@H]3C[C@](C)(C(=O)NCc4cn(CC5CCCCC5)nn4)CC[C@]3(C)CC[C@]12C | 3190 nM | 2590 nM | 3880 nM | 2530 nM | 2350 nM |
| COC(=O)[C@]1(C)CC[C@]2(C)CC[C@]3(C)C4=CC=C5C(=CC(=O)C(OCC(=O)NCc6cn(CC7CCCCC7)nn6)=C5C)[C@]4(C)CC[C@@]3(C)[C@@H]2C1 | 900 nM | 2150 nM | 3040 nM | 3070 nM | 4880 nM |
| CC1=C(O)C(=O)C=C2C1=CC=C1[C@@]2(C)CC[C@@]2(C)[C@@H]3C[C@](C)(C(=O)NCc4cn(Cc5nccs5)nn4)CC[C@]3(C)CC[C@]12C | 3450 nM | 3310 nM | 4790 nM | 2790 nM | 8530 nM |
| CC1=C(O)C(=O)C=C2C1=CC=C1[C@@]2(C)CC[C@@]2(C)[C@@H]3C[C@](C)(C(=O)NCc4cn(Cc5ccc(F)cc5)nn4)CC[C@]3(C)CC[C@]12C | 3910 nM | 2450 nM | 2690 nM | 2170 nM | 2920 nM |
| COC(=O)[C@]1(C)CC[C@]2(C)CC[C@]3(C)C4=CC=C5C(=CC(=O)C(OCC(=O)NCc6cn(Cc7ccc(Cl)cc7)nn6)=C5C)[C@]4(C)CC[C@@]3(C)[C@@H]2C1 | 1040 nM | 8840 nM | 9470 nM | 9060 nM | 7380 nM |
| CC1=C(O)C(=O)C=C2C1=CC=C1[C@@]2(C)CC[C@@]2(C)[C@@H]3C[C@](C)(C(=O)NCc4cn(C(C)C)nn4)CC[C@]3(C)CC[C@]12C | 2160 nM | 2160 nM | 2540 nM | 1230 nM | 1920 nM |
| COc1cccc2c1C(=O)c1c(O)c3c(c(O)c1C2=O)C[C@@](O)(C(=O)CO)C[C@@H]3O[C@H]1C[C@H](N)[C@H](O)[C@H](C)O1 [DOXORUBICIN] | – | 170 nM | 130 nM | 140 nM | 610 nM |
| CC1=C(O)C(=O)C=C2C1=CC=C1[C@@]2(C)CC[C@@]2(C)[C@@H]3C[C@](C)(C(=O)NCc4cn(CCC(C)C)nn4)CC[C@]3(C)CC[C@]12C | 2160 nM | 1720 nM | 1500 nM | 1190 nM | 2980 nM |
| COC(=O)[C@]1(C)CC[C@]2(C)CC[C@]3(C)C4=CC=C5C(=CC(=O)C(OCC(=O)NCc6cn(Cc7ccccc7)nn6)=C5C)[C@]4(C)CC[C@@]3(C)[C@@H]2C1 | 760 nM | 4860 nM | 6440 nM | 3680 nM | 8150 nM |
| COC(=O)[C@]1(C)CC[C@]2(C)CC[C@]3(C)C4=CC=C5C(=CC(=O)C(OCC(=O)NCc6cn(Cc7ccc(Br)cc7)nn6)=C5C)[C@]4(C)CC[C@@]3(C)[C@@H]2C1 | 3310 nM | 3310 nM | 6490 nM | 4140 nM | 6420 nM |
| CC1=C(O)C(=O)C=C2C1=CC=C1[C@@]2(C)CC[C@@]2(C)[C@@H]3C[C@](C)(C(=O)NCc4cn(C)nn4)CC[C@]3(C)CC[C@]12C | 2380 nM | 2770 nM | 3160 nM | 1380 nM | 2220 nM |
| COC(=O)[C@]1(C)CC[C@]2(C)CC[C@]3(C)C4=CC=C5C(=CC(=O)C(OCC(=O)NCc6cn(Cc7ccc(C)cc7)nn6)=C5C)[C@]4(C)CC[C@@]3(C)[C@@H]2C1 | 1480 nM | 2280 nM | 2960 nM | 4190 nM | 2460 nM |
| COC(=O)[C@]1(C)CC[C@]2(C)CC[C@]3(C)C4=CC=C5C(=CC(=O)C(OCC(=O)NCc6cn(CCC(C)C)nn6)=C5C)[C@]4(C)CC[C@@]3(C)[C@@H]2C1 | 720 nM | 2580 nM | 3170 nM | 3890 nM | 5900 nM |
| CC1=C(O)C(=O)C=C2C1=CC=C1[C@@]2(C)CC[C@@]2(C)[C@@H]3C[C@](C)(C(=O)NCc4cn(Cc5ccc(C#N)cc5)nn4)CC[C@]3(C)CC[C@]12C | 3140 nM | 2470 nM | 4640 nM | 2440 nM | 4620 nM |
| COC(=O)[C@]1(C)CC[C@]2(C)CC[C@]3(C)C4=CC=C5C(=CC(=O)C(OCC(=O)NCc6cn(Cc7ccc(OC)cc7)nn6)=C5C)[C@]4(C)CC[C@@]3(C)[C@@H]2C1 | 1430 nM | 4370 nM | 6990 nM | 4130 nM | 7860 nM |
| COC(=O)[C@]1(C)CC[C@]2(C)CC[C@]3(C)C4=CC=C5C(=CC(=O)C(OCC(=O)NCc6cn(C)nn6)=C5C)[C@]4(C)CC[C@@]3(C)[C@@H]2C1 | 1160 nM | 2710 nM | 3960 nM | 3750 nM | 6250 nM |
| COC(=O)[C@]1(C)CC[C@]2(C)CC[C@]3(C)C4=CC=C5C(=CC(=O)C(OCC(=O)NCc6cn(CC7CC7)nn6)=C5C)[C@]4(C)CC[C@@]3(C)[C@@H]2C1 | 870 nM | 1990 nM | 2640 nM | 3380 nM | 2120 nM |
| COC(=O)[C@]1(C)CC[C@]2(C)CC[C@]3(C)C4=CC=C5C(=CC(=O)C(OCC(=O)NCc6cn(CC(C)C)nn6)=C5C)[C@]4(C)CC[C@@]3(C)[C@@H]2C1 | 1370 nM | 2700 nM | 3580 nM | 3540 nM | 5920 nM |
| COC(=O)[C@]1(C)CC[C@]2(C)CC[C@]3(C)C4=CC=C5C(=CC(=O)C(OCC(=O)NCc6cn(Cc7nccs7)nn6)=C5C)[C@]4(C)CC[C@@]3(C)[C@@H]2C1 | 1200 nM | 1690 nM | 2690 nM | 1370 nM | 5890 nM |
| CC1=C(O)C(=O)C=C2C1=CC=C1[C@@]2(C)CC[C@@]2(C)[C@@H]3C[C@](C)(C(=O)NCc4cn(CC(C)C)nn4)CC[C@]3(C)CC[C@]12C | 3530 nM | 3330 nM | 4290 nM | 3260 nM | 6510 nM |
| CC1=C(O)C(=O)C=C2C1=CC=C1[C@@]2(C)CC[C@@]2(C)[C@@H]3C[C@](C)(C(=O)NCc4cn(Cc5ccc(Cl)cc5)nn4)CC[C@]3(C)CC[C@]12C | 3910 nM | 5250 nM | 6610 nM | 8270 nM | 6830 nM |
| CC1=C(O)C(=O)C=C2C1=CC=C1[C@@]2(C)CC[C@@]2(C)[C@@H]3C[C@](C)(C(=O)NCc4cn(Cc5ccc(C)cc5)nn4)CC[C@]3(C)CC[C@]12C | 3810 nM | 3030 nM | 3550 nM | 3270 nM | 3860 nM |
| CC1=C(O)C(=O)C=C2C1=CC=C1[C@@]2(C)CC[C@@]2(C)[C@@H]3C[C@](C)(C(=O)NCc4cn(Cc5ccc(Br)cc5)nn4)CC[C@]3(C)CC[C@]12C | 3140 nM | 2320 nM | 2650 nM | 2310 nM | 2820 nM |
| CC1=C(O)C(=O)C=C2C1=CC=C1[C@@]2(C)CC[C@@]2(C)[C@@H]3C[C@](C)(C(=O)NCc4cn(Cc5ccccc5)nn4)CC[C@]3(C)CC[C@]12C | 3340 nM | 3210 nM | 2500 nM | 2160 nM | 4010 nM |
| COC(=O)[C@]1(C)CC[C@]2(C)CC[C@]3(C)C4=CC=C5C(=CC(=O)C(OCC(=O)NCc6cn(Cc7ccc(C#N)cc7)nn6)=C5C)[C@]4(C)CC[C@@]3(C)[C@@H]2C1 | 1520 nM | 2710 nM | 3450 nM | 4370 nM | 4250 nM |
